What all share (type): cell-based
One experiment deals with P.aeruginosa PAD1. The experiment can be described thus: In vitro antibacterial activity, agar disc dilution method. To be noted: Pseudomonas aeruginosa, PAD1, 16 h, read-out: minimum growth inhibitory concentration (MIC). As to the method:
(§1) An in vitro antibacterial activity was measured by an agar disc dilution method.
(§2) Varied test bacteria were cultivated overnight in triptophane-soybroth. A Mueller Hinton agar containing the compound of this invention in varied concentrations was streaked with one platinum loopful of each of the bacteria (number of living cells 10^6/ml).

A further experiment relates to M.luteus ATCC9341. The experiment is described as above. Particulars: Micrococcus luteus, ATCC9341, 16 h, read-out: minimum growth inhibitory concentration (MIC). The method, then:
as §1, §2

For a further experiment, the system named is P.morganii IFO3445. The description is as above. To be noted: Morganella morganii, IFO3445, 16 h, read-out: minimum growth inhibitory concentration (MIC). As to the method: as §1, §2
A further experiment deals with E.cloacae 963. The experiment is described as above. To be noted: Enterobacter cloacae, 963, 16 h, read-out: minimum growth inhibitory concentration (MIC). The method, then: as §1, §2
Another experiment deals with P.vulgalis OX-11. The description is as above. Particulars: 16 h, read-out: minimum growth inhibitory concentration (MIC). As to the method: as §1, §2
The test system of a further experiment is P.aeruginosa IFO3445. The description is as above. To be noted: Pseudomonas aeruginosa, IFO3445, 16 h, read-out: minimum growth inhibitory concentration (MIC). The method, then: as §1, §2
The subject of a further experiment is S.enteritidis G14. The experiment is described as above. To be noted: Salmonella enterica, ENTERITIDIS, 16 h, read-out: minimum growth inhibitory concentration (MIC). As to the method:
as §1, §2

In the next experiment the test system is K.pneumoniae PCI602. The experiment is described as above. Particulars: Klebsiella pneumoniae, PCI602, 16 h, read-out: minimum growth inhibitory concentration (MIC). The method, then:
as §1, §2

The subject of the next experiment is S.typhi 901. The description is as above. Particulars: Salmonella enterica, 16 h, read-out: minimum growth inhibitory concentration (MIC). The method, then: as §1, §2
The test system of a further experiment is S.marcescens IAM1184. The experiment is described as above. To be noted: Serratia marcescens, IAM1184, 16 h, read-out: minimum growth inhibitory concentration (MIC). As to the method: as §1, §2
A further experiment has as its system S. aureus Terajima. The description is as above. Particulars: Staphylococcus aureus, 16 h, read-out: minimum growth inhibitory concentration (MIC). The method, then: as §1, §2
A further experiment relates to S.aureus 209p NIHJ JC1. Described as above. Particulars: Staphylococcus aureus, 16 h, read-out: minimum growth inhibitory concentration (MIC). As to the method: as §1, §2
The next experiment has as its system S.pyogenes Cook. The experiment is described as above. Particulars: Streptococcus pyogenes, 16 h, read-out: minimum growth inhibitory concentration (MIC). The method, then: as §1, §2
The subject of the next experiment is P.aeruginosa NCTC1049. The description is as above. To be noted: Pseudomonas aeruginosa, NCTC1049, 16 h, read-out: minimum growth inhibitory concentration (MIC). As to the method:
as §1, §2

Another experiment relates to P.aeruginosa N-2. The experiment is described as follows: MIC values of 10 kinds of Pseudomonas aeruginosa. To be noted: N2, 16 h, read-out: MIC values. As to the method:
as §1, §2
(§3) MIC values of 10 kinds of Pseudomonas aeruginosa were measured for Compound III, Comparative Example B and CAZ.

Another experiment deals with P.aeruginosa 64. The experiment is described as follows: MIC values of 10 kinds of Pseudomonas aeruginosa. Particulars: Pseudomonas aeruginosa, 64, 16 h, read-out: MIC values. As to the method: as §1, §2, §3
A further experiment relates to P.aeruginosa N-3. The experiment can be described thus: MIC values of 10 kinds of Pseudomonas aeruginosa. Particulars: N3, 16 h, read-out: MIC values. The method, then:
as §1, §2, §3

Another experiment deals with P.aeruginosa N-26. The experiment can be described thus: MIC values of 10 kinds of Pseudomonas aeruginosa. Particulars: N26, 16 h, read-out: MIC values. As to the method: as §1, §2, §3
The subject of the next experiment is P.aeruginosa 88. The experiment can be described thus: MIC values of 10 kinds of Pseudomonas aeruginosa. To be noted: Pseudomonas aeruginosa, 88, 16 h, read-out: MIC values. The method, then: as §1, §2, §3
The next experiment concerns P.aeruginosa NO. 97. The experiment is described as follows: MIC values of 10 kinds of Pseudomonas aeruginosa. Particulars: NO.97, 16 h, read-out: MIC values. As to the method: as §1, §2, §3
The subject of another experiment is P.aeruginosa ATCC27577. The experiment can be described thus: MIC values of 10 kinds of Pseudomonas aeruginosa. To be noted: ATCC27577, 16 h, read-out: MIC values. As to the method: as §1, §2, §3
The next experiment concerns P.aeruginosa Tid53. The experiment is described as follows: MIC values of 10 kinds of Pseudomonas aeruginosa. Particulars: TID53, 16 h, read-out: MIC values. The method, then:
as §1, §2, §3

Another experiment concerns P.aeruginosa 0-11. The experiment is described as follows: MIC values of 10 kinds of Pseudomonas aeruginosa. Particulars: Pseudomonas aeruginosa, 011, 16 h, read-out: MIC values. As to the method:
as §1, §2, §3

A further experiment concerns P.aeruginosa ATCC27318. The experiment can be described thus: MIC values of 10 kinds of Pseudomonas aeruginosa. To be noted: ATCC27318, 16 h, read-out: MIC values. The method, then:
as §1, §2, §3

Consider one molecule from patent EP0347459A1, “CEPHALOSPORIN COMPOUNDS OR THEIR SALTS, PROCESS FOR THEIR PREPARATION, AND PHARMACEUTICAL COMPOSITIONS” (TEIJIN LIMITED, priority 1987, dated 1988).

The structures appear in SMILES notation. In brackets after ≈: the same amount, converted by molar mass.

With `CC(C)(O/N=C(\C(=O)N[C@@H]1C(=O)N2C(C(=O)[O-])=C(C[n+]3ccccc3)CS[C@H]12)c1csc(N)n1)C(=O)O` [CAZ, (6R,7R)-7-[(Z)-2-(2-amino-1,3-thiazol-4-yl)-2-(2-carbcxypropyl-2-yloxyimino)acetamide]-3-(l-pyridinium)methyl-3-cephem-4-carboxylate, reference compound], the MIC is 0.4 µg/mL (≈ 0.732 µM) in the experiment with P.aeruginosa PAD1; 0.4 µg/mL (≈ 0.732 µM) in the experiment with M.luteus ATCC9341; 0.0125 µg/mL (≈ 0.0229 µM) in the experiment with P.morganii IFO3445; 0.05 µg/mL (≈ 0.0915 µM) with E.cloacae 963; 0.005 µg/mL (≈ 0.00915 µM) in the experiment with P.vulgalis OX-11; 0.4 µg/mL (≈ 0.732 µM) with P.aeruginosa IFO3445. Further, the MIC came out at 0.005 µg/mL (≈ 0.00915 µM) in the experiment on S.enteritidis G14; 0.025 µg/mL (≈ 0.0457 µM) with K.pneumoniae PCI602; 0.1 µg/mL (≈ 0.183 µM) in the experiment with S.typhi 901; 0.025 µg/mL (≈ 0.0457 µM) in the experiment on S.marcescens IAM1184; 1.6 µg/mL (≈ 2.93 µM) in the experiment on S. aureus Terajima; 6.3 µg/mL (≈ 11.5 µM) with S.aureus 209p NIHJ JC1. Besides, the MIC in the experiment with S.pyogenes Cook came out at 0.4 µg/mL (≈ 0.732 µM); in the experiment with P.aeruginosa NCTC1049 it was 0.4 µg/mL (≈ 0.732 µM); in the experiment on P.aeruginosa N-2 it was 0.8 µg/mL (≈ 1.46 µM); with P.aeruginosa 64 it was 3.1 µg/mL (≈ 5.67 µM); with P.aeruginosa N-3 it was 1.6 µg/mL (≈ 2.93 µM); with P.aeruginosa N-26, 1.6 µg/mL (≈ 2.93 µM). Further, the MIC came out at 0.8 µg/mL (≈ 1.46 µM) in the experiment on P.aeruginosa 88; 3.1 µg/mL (≈ 5.67 µM) in the experiment with P.aeruginosa NO. 97; 0.2 µg/mL (≈ 0.366 µM) in the experiment on P.aeruginosa ATCC27577; 6.3 µg/mL (≈ 11.5 µM) with P.aeruginosa Tid53; 3.1 µg/mL (≈ 5.67 µM) in the experiment on P.aeruginosa 0-11; 1.6 µg/mL (≈ 2.93 µM) with P.aeruginosa ATCC27318.
